Data from patent US20190225650A1, “PEPTIDOMIMETIC MACROCYCLES AND USE THEREOF IN REGULATING HIF1ALPHA” (AILERON THERAPEUTICS, INC., priority 2013, published 2019).
Bridge positions count the residues as written; N and C are the ends. Square brackets hold non-standard residues; d marks the D form. Peptide text beside a SMILES is read from it. R8 = C=CCCCCCC[C@@](C)(N)C(=O)O; S5 = C=CCCC[C@](C)(N)C(=O)O; Nle = CCCC[C@H](N)C(=O)O; Abu = CC[C@H](N)C(=O)O

Assays:
[1] = test system: HRE-bla ME-180 cells; assay: Reporter gene assay (HRE-bla ME-180 HIF reporter, GeneBLAzer); assay type: cell-based, human; details: for EC50: 24 hour normoxia
Outline: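 A FRET β-lactamase readout of HIF transcription was used. After compound treatment in 0.3% DMSO/media under normoxic conditions, 20 μl of 6× LiveBLAzer-FRET B/G (CCF4-AM) substrate was added. Plates sat 3 hr at room temperature in the dark and were read at 409 Ex/460Em and 409Ex/530Em on a Synergy 2. Inhibition was compared against DMSO vehicle controls, with chetomin as positive control.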

[2] = biological target: T1, flag-tagged HIF1α (AA 786-826) / His6-tagged p300 (AA 323-423) complex (Homo sapiens, UniProt Q09472); assay: HIF1α p300 displacement assay (TR FRET, +CHAPS); assay type: binding; details: read-out: IC50 (nM) (HIF1α_p300 Displacement + CHAPS)
T1 construct: His6-tagged p300 (AA 323-423); made in house; host or cells: E. coli (pETDuet vector)
Outline: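 In this TR-FRET displacement format, peptides compete HIF1α C-terminal transactivation domain off p300-CH. They were preincubated 1 h at room temperature with 300 nM complex in HEPES pH 7.4/NaCl buffer with 7.5 mM CHAPS and 1 mM DTT. Anti-His-D2 (4 nM) and anti-Flag-K (0.5 μM) followed for 2 h, and a one-site fit of the fluorescence ratio gave IC50.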

[3] = test system: HRE-bla ME-180 cells; assay: Cell proliferation assay (viability, MTT, 1% FBS); assay type: cell-based, human
Outline: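 Viable cell number was measured with the CellTiter 96 (MTT) kit after compounds were applied for a 16 h normoxic (21% O2) pretreatment, followed by further normoxic or hypoxic (1% O2) culture. Cells: 2×10^4 ME-180 per well, Opti-MEM + 1% FBS, 0.5% DMSO vehicle.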

SMILES | EC50 [1] | IC50 [2] | 18 h Avg % max inhibition at top conc (HIF Rptr-24 hrs normoxia) (μM) [1] | Viability 1% FBS AVG (MTT V3-24 hr Normoxia) (μM) [3]
CCCC[C@H](NC(=O)[C@H](Cc1ccccc1)NC(=O)[C@@H](NC(=O)[C@H](C)NC(=O)[C@H](CCC(N)=O)NC(=O)[C@H](CC(=O)O)NC(=O)[C@@H](NC(=O)[C@H](Cc1ccccc1)NC(C)=O)[C@@H](C)CC)C(C)C)C(=O)N[C@@]1(C)CCCC=CCCC[C@@](C)(C(=O)N[C@@H](CO)C(=O)N[C@@H](C)C(=O)N[C@@H](CC(C)C)C(=O)N[C@@H](CC(C)C)C(N)=O)NC(=O)[C@H]([C@@H](C)CC)NC(=O)[C@H](C(C)C)NC(=O)[C@H](CC(C)C)NC1=O [SP-257] (Ac-FIDQAVF[Nle][S5]LVI[S5]SALL-NH2; staple 9-13) | 5 to 15 µM | > 700 nM | ++++ (≥50: ++++) | ++ (≤5 but <15: ++)
CCCC[C@H](NC(=O)[C@H](CC(C)C)NC(=O)[C@@H](NC(=O)[C@H](CCC(=O)O)NC(=O)[C@H](CCC(=O)O)NC(=O)[C@H](CC(=O)O)NC(=O)[C@@H](NC(=O)[C@H](Cc1ccccc1)NC(C)=O)[C@@H](C)CC)C(C)C)C(=O)N[C@@]1(C)CCCC=CCCC[C@@](C)(C(=O)N[C@@H](CCCC)C(=O)N[C@@H](C)C(=O)N[C@@H](Cc2ccccc2)C(N)=O)NC(=O)[C@H]([C@@H](C)CC)NC(=O)[C@H](C(C)C)NC(=O)[C@H](CC(C)C)NC1=O [SP-220] (Ac-FIDEEVL[Nle][S5]LVI[S5][Nle]AF-NH2; staple 9-13) | > 30 µM | > 700 nM | + (<10: +) | ++++ (≥30: ++++)
CCCC[C@H](NC(=O)[C@H](CCC(=O)O)NC(=O)[C@@H](NC(=O)[C@@H](NC(=O)[C@H](CC(C)C)NC(=O)[C@]1(C)CCCC=CCCC[C@](C)(NC(=O)[C@H](CCC(=O)O)NC(=O)[C@H](CC(=O)O)NC(=O)[C@@H](NC(=O)[C@H](Cc2ccccc2)NC(C)=O)[C@@H](C)CC)C(=O)N[C@@H](C(C)C)C(=O)N[C@@H](CC(C)C)C(=O)N[C@@H](CCCC)C(=O)N1)C(C)C)[C@@H](C)CC)C(=O)N[C@@H](C)C(=O)N[C@@H](CC(C)C)C(N)=O [SP-111] (Ac-FIDE[S5]VL[Nle][S5]LVIE[Nle]AL-NH2; staple 5-9) | > 30 µM | 200 to 400 nM | ++++ (≥50: ++++) | ++++ (≥30: ++++)
CCCC[C@H](NC(=O)[C@H](CC(C)C)NC(=O)[C@@H](NC(=O)[C@H](CCC(=O)O)NC(=O)[C@H](CCC(=O)O)NC(=O)[C@H](CC(=O)O)NC(=O)[C@@H](NC(=O)[C@H](CC(N)=O)NC(=O)[C@@H](NC(=O)[C@H](CCC(N)=O)NC(=O)[C@H](CC(=O)O)NC(=O)[C@H](CC(C)C)NC(=O)[C@H](C)NC(=O)[C@H](CCCNC(=N)N)NC(=O)[C@]1(C)CCCC=CCCC[C@](C)(NC(=O)[C@H](CCC(N)=O)NC(=O)[C@H](CC(C)C)NC(=O)[C@H](CC(C)C)NC(C)=O)C(=O)N[C@@H](CCC(=O)O)C(=O)N[C@@H](CCC(=O)O)C(=O)N[C@@H](CC(C)C)C(=O)N1)C(C)C)[C@@H](C)CC)C(C)C)C(=O)N[C@@]1(C)CCCC=CCCC[C@@](C)(C(=O)N[C@@H](CCCC)C(=O)NCC(N)=O)NC(=O)[C@H]([C@@H](C)CC)NC(=O)[C@H](C(C)C)NC(=O)[C@H](CC(C)C)NC1=O [SP-306] (Ac-LLQ[S5]EEL[S5]RALDQVNIDEEVL[Nle][S5]LVI[S5][Nle]G-NH2; staple 4-8, 23-27) | > 30 µM | ≤ 200 nM | +++ (≤25 but <50: +++) | ++++ (≥30: ++++)
CCCC[C@H](NC(=O)[C@H](CCC(=O)O)NC(=O)[C@]1(C)CCCC=CCCCCCC[C@@](C)(NC(=O)[C@H](CCC(=O)O)NC(=O)[C@H](CC(=O)O)NC(=O)[C@@H](NC(=O)[C@H](CC(N)=O)NC(=O)[C@@H](NC(=O)[C@]2(C)CCCC=CCCCCCC[C@@](C)(NC(=O)[C@H](CCC(=O)O)NC(=O)CNC(=O)[C@H](CCC(N)=O)NC(=O)[C@H](CC(C)C)NC(=O)[C@H](CC(C)C)NC(C)=O)C(=O)N[C@@H](CC(C)C)C(=O)N[C@@H](CC(C)C)C(=O)N[C@@H](CCCNC(=N)N)C(=O)N[C@@H](C)C(=O)N[C@@H](CC(C)C)C(=O)N[C@@H](CC(=O)O)C(=O)N2)C(C)C)[C@@H](C)CC)C(=O)N[C@@H](C(C)C)C(=O)N[C@@H](CC(C)C)C(=O)N[C@@H](CCCC)C(=O)N[C@@H](CO)C(=O)N[C@@H](CC(C)C)C(=O)N[C@@H](C(C)C)C(=O)N1)C(=O)NCC(N)=O [SP-313] (Ac-LLQGE[R8]LLRALD[S5]VNIDE[R8]VL[Nle]SLV[S5]E[Nle]G-NH2; staple 6-13, 19-26) | > 30 µM | 200 to 400 nM | + (<10: +) | ++++ (≥30: ++++)
CCCC[C@H](NC(=O)[C@H](CCC(=O)O)NC(=O)[C@@H](NC(=O)[C@@H](NC(=O)[C@H](CO)NC(=O)[C@]1(C)CCCC=CCCC[C@](C)(NC(=O)[C@H](CCC(=O)O)NC(=O)[C@H](CC(=O)O)NC(=O)[C@@H](NC(=O)[C@H](Cc2ccccc2)NC(C)=O)[C@@H](C)CC)C(=O)N[C@@H](C(C)C)C(=O)N[C@@H](CC(C)C)C(=O)N[C@@H](CCCC)C(=O)N1)C(C)C)[C@@H](C)CC)C(=O)N[C@@H](C)C(=O)N[C@@H](CC(C)C)C(N)=O [SP-144] (Ac-FIDE[S5]VL[Nle][S5]SVIE[Nle]AL-NH2; staple 5-9) | > 30 µM | 400 to 700 nM | ++++ (≥50: ++++) | +++ (≤15 but <30: +++)

Now from value to compound, other results behind:

EC50 [1] | IC50 [2] | SMILES | 18 h Avg % max inhibition at top conc (HIF Rptr-24 hrs normoxia) (μM) [1] | Viability 1% FBS AVG (MTT V3-24 hr Normoxia) (μM) [3]
15 to 30 µM | 200 to 400 nM | CC[C@@H]1NC(=O)[C@H](CC(=O)O)NC(=O)[C@H](Cc2ccc(O)cc2)NC(=O)[C@@](C)(NC(=O)[C@@H](NC(=O)[C@H](CC(C)C)NC(=O)[C@H](CCC(N)=O)NC(=O)[C@@H]2CCCN2C(=O)[C@H](CC(C)C)NC(=O)[C@H](CCC(=O)O)NC(=O)[C@H](CCCCN)NC(=O)[C@@H](NC(=O)[C@H](CCCNC(=N)N)NC(=O)[C@H](CC(=O)O)NC(=O)[C@H](CC(C)C)NC(=O)CNC(=O)[C@H](CCSC)NC(=O)[C@]2(C)CCCC=CCCC[C@](C)(NC(=O)[C@H](CCSC)NC(=O)[C@H](CC(C)C)NC(=O)[C@@H](NC(=O)[C@H](CCC(=O)O)NC(=O)[C@H](CCC(=O)O)NC(=O)[C@H](CC(=O)O)NC(=O)[C@@H](NC(=O)[C@H](Cc3ccccc3)NC(C)=O)[C@@H](C)CC)C(C)C)C(=O)N[C@@H](CC(C)C)C(=O)N[C@@H](C(C)C)C(=O)N[C@@H]([C@@H](C)CC)C(=O)N2)[C@@H](C)CC)[C@@H](C)O)CCCC=CCCC[C@@](C)(C(=O)N[C@H](C(=O)N[C@@H](CC(N)=O)C(=O)N[C@@H](C)C(N)=O)C(C)C)NC1=O [SP-321] (Ac-FIDEEVLM[S5]LVI[S5]MGLDRIKELPQLT[S5]YD[Abu][S5]VNA-NH2; staple 9-13, 27-31) | +++ (≤25 but <50: +++) | ++++ (≥30: ++++)
> 30 µM | 200 to 400 nM | CCCC[C@H](NC(=O)[C@H](CCC(=O)O)NC(=O)[C@]1(C)CCCC=CCCCCCC[C@@](C)(NC(=O)[C@H](CCC(=O)O)NC(=O)[C@H](CC(=O)O)NC(=O)[C@@H](NC(=O)[C@H](CC(N)=O)NC(=O)[C@@H](NC(=O)[C@]2(C)CCCC=CCCCCCC[C@@](C)(NC(=O)[C@H](CCC(=O)O)NC(=O)CNC(=O)[C@H](CCC(N)=O)NC(=O)[C@H](CC(C)C)NC(=O)[C@H](CC(C)C)NC(C)=O)C(=O)N[C@@H](CC(C)C)C(=O)N[C@@H](CC(C)C)C(=O)N[C@@H](CCCNC(=N)N)C(=O)N[C@@H](C)C(=O)N[C@@H](CC(C)C)C(=O)N[C@@H](C)C(=O)N2)C(C)C)[C@@H](C)CC)C(=O)N[C@@H](C(C)C)C(=O)N[C@@H](CC(C)C)C(=O)N[C@@H](CCCC)C(=O)N[C@@H](CO)C(=O)N[C@@H](CC(C)C)C(=O)N[C@@H](C(C)C)C(=O)N1)C(N)=O [SP-354] (Ac-LLQGE[R8]LLRALA[S5]VNIDE[R8]VL[Nle]SLV[S5]E[Nle]-NH2; staple 6-13, 19-26) | +++ (≤25 but <50: +++) | ++++ (≥30: ++++)
> 30 µM | ≤ 200 nM | CCCC[C@H](NC(=O)[C@H](CCC(=O)O)NC(=O)[C@]1(C)CCCC=CCCCCCC[C@@](C)(NC(=O)[C@H](CCC(=O)O)NC(=O)[C@H](CC(=O)O)NC(=O)[C@@H](NC(=O)[C@H](CC(N)=O)NC(=O)[C@@H](NC(=O)[C@]2(C)CCCC=CCCCCCC[C@@](C)(NC(=O)[C@H](C)NC(=O)CNC(=O)[C@H](CCC(N)=O)NC(=O)[C@H](CC(C)C)NC(=O)[C@H](CC(C)C)NC(C)=O)C(=O)N[C@@H](CC(C)C)C(=O)N[C@@H](CC(C)C)C(=O)N[C@@H](CCCNC(=N)N)C(=O)N[C@@H](C)C(=O)N[C@@H](CC(C)C)C(=O)N[C@@H](CC(=O)O)C(=O)N2)C(C)C)[C@@H](C)CC)C(=O)N[C@@H](C(C)C)C(=O)N[C@@H](CC(C)C)C(=O)N[C@@H](CCCC)C(=O)N[C@@H](CO)C(=O)N[C@@H](CC(C)C)C(=O)N[C@@H](C(C)C)C(=O)N1)C(N)=O [SP-353] (Ac-LLQGA[R8]LLRALD[S5]VNIDE[R8]VL[Nle]SLV[S5]E[Nle]-NH2; staple 6-13, 19-26) | +++ (≤25 but <50: +++) | ++++ (≥30: ++++)
